Measurements as given in publication PMC7006784, “The combination of salvianolic acid A with latamoxef completely protects mice against lethal pneumonia caused by methicillin-resistant Staphylococcus aureus” (Emerging Microbes & Infections, 2020).

Experiments:
S. aureus USA300 [1] = assay: Pneumonia model, survival; assay type: in vivo, C57BL/6J mice; details: mice, 2 × 10^9 CFU i.n.; s.c. 100 mg/kg Sal A and/or 75 mg/kg latamoxef every 12 h, 96 h; PBS control 10%
Description: The animal experiments were performed using 6- to 8-week-old female C57BL/6J mice obtained from the Experimental Animal Center of Jilin University and conducted according to the guidelines of the Animal Care and Use Committee of Jilin University. The mouse S. aureus pneumonia model was generated as described previously. Briefly, the mice were anaesthetized with ether and inoculated with 30 μl bacterial resuspension via the left nare. The mice were then held upright to allow the bacteria to be inhaled into the lungs. For the survival assessment, groups of 10 mice were challenged with 2 × 10^9 CFU S. aureus. One hour after intranasal inoculation, the mice were subcutaneously injected with 100 mg/kg of Sal A, 75 mg/kg of latamoxef or 100 mg/kg of Sal A plus 75 mg/kg of latamoxef at 12 h intervals, and survival was assessed for 96 h. For the bacterial load, histopathological, and bronchoalveolar lavage fluid (BALF) experiments, mice were inoculated with 1 × 10^9 CFU S. aureus. The mice were then given a subcutaneous injection of 100 mg/kg Sal A, 75 mg/kg latamoxef or a combination of 100 mg/kg Sal A and 75 mg/kg every 12 h. After 24 h, the left lung of each anaesthetized mouse was aseptically excised and homogenized, and the CFU was determined by serial dilutions. […]

S. aureus USA300 [2] = assay: Pneumonia model, bacterial load and histopathology of the lungs; assay type: in vivo, C57BL/6J mice; details: mice, 1 × 10^9 CFU i.n., 24 h
Description: The animal experiments were performed using 6- to 8-week-old female C57BL/6J mice obtained from the Experimental Animal Center of Jilin University and conducted according to the guidelines of the Animal Care and Use Committee of Jilin University. The mouse S. aureus pneumonia model was generated as described previously. Briefly, the mice were anaesthetized with ether and inoculated with 30 μl bacterial resuspension via the left nare. The mice were then held upright to allow the bacteria to be inhaled into the lungs. For the survival assessment, groups of 10 mice were challenged with 2 × 10^9 CFU S. aureus. One hour after intranasal inoculation, the mice were subcutaneously injected with 100 mg/kg of Sal A, 75 mg/kg of latamoxef or 100 mg/kg of Sal A plus 75 mg/kg of latamoxef at 12 h intervals, and survival was assessed for 96 h. For the bacterial load, histopathological, and bronchoalveolar lavage fluid (BALF) experiments, mice were inoculated with 1 × 10^9 CFU S. aureus. The mice were then given a subcutaneous injection of 100 mg/kg Sal A, 75 mg/kg latamoxef or a combination of 100 mg/kg Sal A and 75 mg/kg every 12 h. After 24 h, the left lung of each anaesthetized mouse was aseptically excised and homogenized, and the CFU was determined by serial dilutions. The right lungs from each group of mice were excised for histopathological analysis, and the samples were fixed in 10% formalin and stained with haematoxylin and eosin (H&E).

With `CO[C@@]1(NC(=O)C(C(=O)O)c2ccc(O)cc2)C(=O)N2C(C(=O)O)=C(CSc3nnnn3C)CO[C@@H]21` (stereo partly drawn) [latamoxef] the survival rate (S. aureus USA300 [1]) was 50%, the “viable MRSA loads in the lungs in comparison with the control” value (S. aureus USA300 [2]; s.c. 100 mg/kg Sal A and/or 75 mg/kg latamoxef every 12 h) was “significantly decreased” and the “pulmonary inflammation (histopathology of the lungs)” value (S. aureus USA300 [2]; s.c. 100 mg/kg Sal A and/or 75 mg/kg latamoxef, H&E) was “alleviated”.
